From EP0364941A1, “Branched-chain alkyl esters of 2-(4-(2-piperidino ethoxy)benzoyl)benzoic acid, processes for their preparation and their use as spasmolytic agents” (HOECHST AKTIENGESELLSCHAFT, priority 1988, dated 1990)

Test system: large Bowel
Test: Motility of the large bowel (colonic motor complex) in conscious dogs
Format: in vivo
Description: Male dogs (THG Tierhandelsgesellschaft Rodenbach, Hoe:BEAK (Beagle)) weighing 15 - 20 kg were used in all experiments.
At least 4 weeks prior the experiment the dogs had been equipped with miniaturised strain gage force transducers (T1-T2) (2x4mm), sutured onto the gut at the locations mentioned below. The cables of the transducers were embedded into a cannula which carried the plug for external electric connection. This stainless steel cannula was implanted into the abdominal wall, close below the costal arch. Each transducer was connected to a measuring bridge. The signals were on line stored using a HP 9835 A computer, allowing later analysis of the data. • T1 : Colon ascendens 10 cm aborafrom the ileoceval valve (ICV) • T2 : Colon transversum 25 cm aborad from the ICV
18 hours prior to the experiment food was withdrawn from the animals, water ad libidum. All experiments started between 08:00 and 09:00 am.
The following parameters were determined: The duration of the cycle (min) The duration of the colonic motor complex (CMC) (min) The maximal height of the concentrations (AU: arbitrary units)
Data from the two recording sites (T1-T2) were pooled. […]
For detection of significant differences (p < 0.05) the unpaired t-test was used. Only significant differences were indicated by *.

SMILES: CC(C)OC(=O)c1ccccc1C(=O)c1ccc(OCCN2CCCCC2)cc1.Cl [Test Compound II, Isopropyl-2-[4-(2-piperidino-ethoxy)-benzoyl]-benzoate hydrochloride]
- effect on colonic motility (1 mg/kg i.g.): uneffective
- Duration CMC (1 mg/kg intragastrically): 6 ± 2 min
- Duration Cycle (1 mg/kg intragastrically): 28 ± 11 min
- Max.heigth of CMC (1 mg/kg intragastrically): 50±25 AU
- Total number of spikes (1 mg/kg intragastrically): 5.6±1.7 n/CMC
- Duration CMC (3 mg/kg intragastrically): 11 ± 3 min
- Duration Cycle (3 mg/kg intragastrically): 136 ± 42 min
- Max.heigth of CMC (3 mg/kg intragastrically): 40±23 AU
- Total number of spikes (3 mg/kg intragastrically): 5.5±1.0 n/CMC
- duration of complete inhibition of colonic motility (CMC) (4 mg/kg i.g.): about 2 hours
